Common to all, as to assay: NCI tumour cell line growth inhibition, 48 h
Assay [1] deals with HCT-15 colon.
Assay [2] relates to CAKI-1 renal.
Assay [3] concerns U251 CNS.
Assay [4] concerns EKVX NSCLC.
Assay [5] concerns LOX IMVI melanoma.
Assay [6] relates to IGROV1 ovarian.
Assay [7] relates to COLO 205 colon.
In assay [8] the test system is NCI-H522 lung.
Assay [9] has as its system RPMI-8226 leukemia.
Assay [10] relates to M14 melanoma.
In assay [11] the test system is SR leukemia.
Assay [12] has as its system HOP-62 NSCLC.
For assay [13], the system named is HCC-2998 colon.
Assay [14] deals with T-47D breast.
In assay [15] the test system is OVCAR-4 ovarian.
Assay [16] has as its system MDA-N.
For assay [17], the system named is MOLT-4 leukemia.

Each structure is given as a SMILES string.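 Each compound was tested at five concentrations against cells in 96-well plates for 48 hours. At the TGI there is no net growth.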

TGI data for 13 molecules are collected here from PubChem BioAssay (NCI).

As for `COc1ccc(CNC(=O)[C@H](Cc2ccc(O)cn2)NC(C)=O)cc1`, the TGI in assay [1], in assay [2], in assay [3], in assay [4], in [5] and in assay [6] was over 100 µM each time. For the same molecule, the TGI in assay [7], in assay [8], in [9], in assay [10], in [11] and in assay [12] was over 100 µM in each case. In addition, the TGI in assay [13], in [14], in assay [15], in assay [16] and in [17] was over 100 µM throughout.
For `COc1cccc2cc(C(=O)Nc3ccccn3)c(=N)oc12`, the TGI in assay [1], in assay [2], in [3], in assay [4], in assay [5] and in [6] was over 100 µM throughout. The TGI in [7] is over 100 µM; in [8], over 100 µM; in assay [9], over 100 µM; in assay [10] it was over 100 µM; in [11] it was 16.5 µM; in [12], over 100 µM. The TGI in [13] is over 100 µM; in assay [14], over 100 µM; in [15], over 100 µM; in assay [16], over 100 µM; in [17], 10.6 µM.
For the molecule `CC[C@@H](/C=C\CCC1(C[C@@H](N)CCC=C(C)C)OCCO1)O[Si](C(C)C)(C(C)C)C(C)C`, the TGI in assay [1] came out at 35.4 µM; in assay [2], 35.4 µM; in assay [3], 35.1 µM; in [4], 29.3 µM; in [5], 18.3 µM; in assay [6], 30.6 µM. The TGI was 27.3 µM in [7]; 39.7 µM in assay [8]; 38 µM in assay [9]; 33.6 µM in [10]; 14.5 µM in assay [11]; 48.2 µM in assay [12]. Further, the TGI in assay [13] amounted to 26 µM; in assay [14] it was 48.7 µM; in assay [15], 36.8 µM; in assay [16], 30.7 µM; in [17], 37.1 µM.
Regarding `CCOC(=O)NC(=S)c1ccc(O)c2ccccc12`, the TGI in assay [1] is over 100 µM; in [2], over 100 µM; in assay [3], over 100 µM; in assay [4], over 100 µM; in assay [5], over 100 µM; in assay [6] it was 49.1 µM. Moreover, the TGI in assay [7], in [8], in assay [9], in assay [10], in assay [11] and in assay [12] was over 100 µM throughout. Moreover, the TGI in assay [13], in assay [14], in [15], in assay [16] and in [17] was over 100 µM throughout.
In the case of `COc1ccc2c(CCNS(=O)(=O)c3ccccc3)c(C(C)=O)[nH]c2c1`, the TGI in assay [1], in assay [2], in assay [3], in assay [4], in [5] and in assay [6] was over 100 µM each time. The TGI in assay [7], in [8], in assay [9], in assay [10], in [11] and in assay [12] was over 100 µM throughout. The TGI is over 100 µM in assay [13]; over 86.8 µM in assay [14]; over 100 µM in assay [15]; over 100 µM in assay [16]; over 100 µM in assay [17].
As to `O=C(CCOS(=O)(=O)CF)N1CCN(C(=O)CCOS(=O)(=O)CF)CC1`, the TGI in [1], in [2], in assay [3], in assay [4], in assay [5] and in assay [6] was over 100 µM throughout. The TGI in [7] was over 100 µM; in assay [8] it was over 90.1 µM; in assay [9], over 46.4 µM; in assay [10], over 100 µM; in assay [11], over 100 µM; in assay [12] it was over 100 µM. The TGI in assay [13] is over 100 µM; in assay [14], over 100 µM; in [15] it was over 100 µM; in assay [16] it was over 100 µM; in assay [17], 36.3 µM.
Consider `CCN(CC)C(=S)SS(=O)(=O)c1ccccc1[N+](=O)[O-]`, for which the TGI was over 100 µM in assay [1]; 54.9 µM in [2]; over 56.2 µM in [3]; over 100 µM in assay [4]; over 57 µM in assay [5]; over 100 µM in assay [6]. The TGI in assay [7] was over 100 µM; in [8] it was 2.83 µM; in assay [9], 40.9 µM; in assay [10], over 48.5 µM; in assay [11], over 42.6 µM; in assay [12], over 65.8 µM. Further, the TGI in assay [13] was over 100 µM; in assay [14], over 100 µM; in [15], over 83.3 µM; in assay [16] it was over 66.6 µM; in [17] it was 26 µM.
For `Cn1c2c3c(F)c(F)ccc3nc-2cc2ccccc21`, the TGI worked out at 10.7 µM in [1]; 12.2 µM in assay [2]; 12.9 µM in [3]; 26.8 µM in [4]; 5.23 µM in [5]; 15.9 µM in [6]. In addition, the TGI in assay [7] was 10.7 µM; in [8], 14.3 µM; in assay [9], 11.5 µM; in assay [10] it was 5.41 µM; in [11], over 100 µM; in [12], 6.92 µM. Besides, the TGI in assay [13] was 3.63 µM; in assay [14] it was 4.39 µM; in assay [15], 22.9 µM; in [16] it was 15 µM; in assay [17], over 100 µM.
With `CC1(C)CN=C(Nc2ccc(F)c(F)c2)S1`, the TGI in [1], in assay [2], in assay [3], in assay [4], in [5] and in assay [6] was over 100 µM in each case. Besides, the TGI in assay [7], in assay [8], in [9], in assay [10], in assay [11] and in assay [12] was over 100 µM in each case. The TGI in assay [13], in [14], in [15], in assay [16] and in assay [17] was over 100 µM in each case.
Regarding `Cc1ccc(C)n1-n1c(-c2ccccc2)n[nH]c1=O`, the TGI in assay [1], in assay [2], in assay [3], in assay [4], in assay [5] and in assay [6] was over 100 µM in each case. In addition, the TGI in assay [7], in [8], in assay [9], in [10], in assay [11] and in [12] was over 100 µM each time. Besides, the TGI in assay [13] is over 100 µM; in assay [14] it was over 100 µM; in assay [15], over 100 µM; in assay [16], 70.8 µM; in [17] it was over 100 µM.
Consider `COC(=O)C1C(C(=O)OC)C1(Br)CBr` (stereo unspecified), for which the TGI in [1] is 38.7 µM; in assay [2] it was 31.6 µM; in [3] it was over 100 µM; in assay [4], 90.3 µM; in assay [5] it was 51.5 µM; in [6] it was over 100 µM. The TGI was 41 µM in assay [7]; 14.1 µM in assay [8]; 44.3 µM in [9]; over 100 µM in assay [10]; 46.8 µM in [11]; over 100 µM in assay [12]. The TGI in assay [13] was over 100 µM; in assay [14] it was 50.4 µM; in assay [15], over 100 µM; in assay [16], over 100 µM; in assay [17], 21 µM.
For `O=C1C(Cl)=C(N2CCN(c3ccccn3)CC2)C(=O)c2ncccc21`, the TGI in [1] worked out at 3.12 µM; in [2], 4.01 µM; in assay [3] it was 15.2 µM; in [4] it was 24.4 µM; in [5], 3.59 µM; in assay [6] it was 6.63 µM. In addition, the TGI in assay [7] was found to be 3.31 µM; in assay [8] it was 2.83 µM; in [9] it was 5.7 µM; in assay [10], 3 µM; in assay [11], 3.2 µM; in assay [12] it was 25.6 µM. Besides, the TGI was found to be 30.4 µM in assay [13]; 3.16 µM in [14]; 3.33 µM in assay [15]; 3.51 µM in assay [16]; 4.09 µM in assay [17].
Take `O=C(CN(c1ccc(S(=O)(=O)O)cc1)c1ccc(S(=O)(=O)O)cc1)Nn1cnc2ccc(S(=O)(=O)N(c3ccc(S(=O)(=O)O)cc3)c3ccc(S(=O)(=O)O)cc3)cc2c1=O`: the TGI in [1], in assay [2], in assay [3], in [4], in assay [5] and in assay [6] was over 100 µM each time. Moreover, the TGI in assay [7], in assay [8], in assay [9], in assay [10], in assay [11] and in [12] was over 100 µM in each case. In addition, the TGI in assay [13], in [14], in [15], in assay [16] and in assay [17] was over 100 µM each time.
